Key:
[1] = system: HUDEP2 cells; test: Fetal hemoglobin (HbF) upregulation assay of HUDEP2 cells; format: cell-based
Protocol: HUDEP2 cells were maintained and passaged every 2-3 days by seeding 300,000 viable cells/mL in a culture flask containing HUDEP2 Growth Media comprised of StemSpan SFEM (Stemcell Technologies #09650), 50 ng/mL human stem cell factor (Stemcell Technologies #78062.2), 3 IU/mL erythropoietin (ThermoFisher #PHC2054), 1 μM dexamethasone (Sigma #D2915), and […] doxycycline (Sigma #D3072). HUDEP2 cells were differentiated towards erythroid lineage by seeding at 25,000 viable cells/well in 96-well V-Bottom plates (Corning #3894) containing 135 μL HUDEP2 Differentiation Media comprised of Iscove's Modified Dulbecco's Medium (Stemcell Technologies #36150), 1% L-glutamine (ThermoFisher #25030081), 2% penicillin-streptomycin (ThermoFisher #15140122), 330 μg/mL holo-human transferrin (Sigma #T0665), 2 IU/mL heparin (Stemcell Technologies #07980), 10 μg/mL recombinant human insulin (Sigma #91077C), 3 IU/mL erythropoietin (ThermoFisher #PHC2054), 100 ng/mL human stem cell factor (Stemcell Technologies #78062.2), and 4% fetal bovine serum (ThermoFisher #A3160502). Chemical probes for treatment were resuspended in 100 μL of Iscove's Modified Dulbecco's Medium (Stemcell Technologies #36150) to a 10× concentration, and 15 μL of 10× concentrated chemical probes were added to each well for a total well volume of 150 μL. HUDEP2 cells were left to incubate at 37° C., 85% relative humidity, and 5% CO2 for 3 days. On Day 3, assay plates containing HUDEP2 cells were centrifuged at 500×g for 5 minutes. After centrifugation cells were pelleted to the bottom of the well, and 100 μL of media aspirated from the well without disturbing the cells. Then 90 μL of fresh HUDEP2 Differentiation Media and 10 μL of 10× concentrated chemical probes were added back each well. For the H3K27me3 assay, cells were harvested on Day 4 of treatment. The HUDEP2 cells were centrifuged at 500×g for 5 minutes and all media was aspirated from the well. Then 150 μL of phosphate buffered saline (ThermoFisher #10010023) was added to each well to resuspend the cells. Finally, 50 μL of the HUDEP2 cell suspension from each well was transferred to a poly-d-lysine coated 384-well plate (Corning Cat #356697) and centrifuged at 1000×g for 5 minutes before proceeding to ICC Fix and Stain Protocol. Assay plates for the HbF assay were returned to the incubator until Day 5, where the media was exchanged and chemical probes added exactly as on Day 3. On Day 7 of the HbF assay, the HUDEP2 cells were harvested in the same manner as described for the H3K27me3 assay before proceeding to ICC Fix and Stain Protocol.
The Fix and Stain Protocol was the same for HEK293T, HUDEP2, and Primary CD34+ cell assays except the specific primary and secondary antibodies used for detection. Following 4 days of compound treatment, the respective plates were washed once with 25 μL of PBS (ThermoFisher #10010023) and fixed with 25 μL of 4% paraformaldehyde (ThermoFisher #28908) for 10 minutes at room temperature. The plates were then washed three times with 25 μL of PBS. Subsequent to that, the cells were permeabilized and blocked for 1 hour at room temperature in 25 μL of Perm/Block buffer comprised of IX PBS, 1% bovine serum albumin (ThermoFisher #A3294), 10% fetal bovine serum (ThermoFisher #A3160502), 0.3M glycine (Sigma #G7126), and 0.1% tween-20 (Sigma #P7949). This was followed by additional washing (three times) of the plates with 25 μL of 0.1% tween in PBS.
Plates for the HbF assay were treated similarly as described above except that HbF Primary Antibody (ThermoFisher #MHFH01-4) diluted 1:40 in 0.1% tween-20 in PBS and Hoescht (ThermoFisher #H3570) diluted 1:2000 in 0.1% tween-20 in PBS were used for detection.
(§1) The plates were then scanned on the CX7 at 10× magnification, and 9 images were acquired per well. The software algorithm then identified nuclei and calculated a total nuclei count using the Hoechst staining on channel 1. […]

[2] = system: Human Mobilized Peripheral Blood Primary CD34+ cells; test: Fetal hemoglobin (HbF) upregulation assay of CD34+ cells; format: cell-based
Protocol: Human Mobilized Peripheral Blood Primary CD34+ cells were expanded from thaw by seeding 100,000 viable cells/mL in a culture flask containing CD34+ Expansion Media comprised of StemSpan SFEMII (Stemcell Technologies #09655), 1% erythroid expansion supplement (Stemcell Technologies #02692), and 1 μM dexamethasone (Sigma #D2915). The cells were supplemented by adding an additional IX culture volume of CD34+ Expansion Media on Day 3 after thaw. After 7 days of expansion, Primary CD34+ cells were differentiated towards erythroid lineage by seeding at 15,000 viable cells/well in 96-well V-Bottom plates (Corning #3894) containing 135 μL CD34+ Differentiation Media comprised of StemSpan SFEMII (Stemcell Technologies #09655), 3% normal human serum (Sigma #H4522), 3 IU/mL erythropoietin (ThermFisher #PHC2054). Chemical probes for treatment were resuspended in 100 μL of Iscove's Modified Dulbecco's Medium (Stemcell Technologies #36150) to a 10× concentration, and 15 μL of 10× concentrated chemical probe was added to each well for a total well volume of 150 μL. Primary CD34+ cells were left to incubate at 37° C., 85% relative humidity, and 5% C02 for 3 days. On Day 3, assay plates containing Primary CD34+ cells were centrifuged at 500×g for 5 minutes. After centrifugation cells were pelleted to the bottom of the well, and 100 μL of media aspirated from the well without disturbing the cells. Then 90 μL of fresh CD34+ Differentiation Media and 10 μL of 10× concentrated chemical probes were added back each well. For the H3K27me3 assay, cells were harvested on Day 4 of treatment. The Primary CD34+ cells were centrifuged at 500×g for 5 minutes and all media was aspirated from the well. Then 150 μL of phosphate buffered saline (ThermoFisher #10010023) was added to each well to resuspend the cells. Finally, 50 μL of the Primary CD34+ cell suspension from each well was transferred to a poly-d-lysine coated 384-well plate (Corning Cat #356697) and centrifuged at 1000×g for 5 minutes before proceeding to ICC Fix and Stain Protocol. Assay plates for the HbF assay were returned to the incubator until Day 5, where the media was exchanged and chemical probes added exactly as on Day 3. On Day 7 of the HbF assay, the Primary CD34+ cells were harvested in the same manner as described for the H3K27me3 assay before proceeding to ICC Fix and Stain Protocol. […]
as §1, with “1. After nuclei were identified, the algorithm calculated the average nuclear intensity of the H3K27me3 or HbF staining on channel 2.” for “1.”

EC50 [1] [nM] | EC50 [2] [nM] | SMILES
50 to 100 |  | Cc1ncc(-c2cc3c(n4cnnc24)NCc2c(F)ccc4c2[C@@H](CO4)CO3)c(C)n1 [Compound 13, (S)-4-(2,4-dimethylpyrimidin-5-yl)-12-fluoro-7a,8,13,14-tetrahydro-7H-[1,2,4]triazolo[4′,3′:1,6]pyrido[3,2-b]benzofuro[4,3-fg][1,4]oxazonine]
 | 100 to 500 | Cc1cn(-c2cc3c(n4cnnc24)NCc2c(F)ccc4c2[C@@H](CO4)CO3)cn1 [Compound 15, (S)-12-fluoro-4-(4-methyl-1H-imidazol-1-yl)-7a,8,13,14-tetrahydro-7H-[1,2,4]triazolo[4′,3′:1,6]pyrido[3,2-b]benzofuro[4,3-fg][1,4]oxazonine]
 | < 25 | Fc1cncnc1-c1cc2c(n3cnnc13)NCc1c(F)ccc3c1[C@@H](CO3)CO2 [Compound 164, (S)-12-fluoro-4-(5-fluoropyrimidin-4-yl)-7a,8,13,14-tetrahydro-7H-[1,2,4]triazolo[4′,3′:1,6]pyrido[3,2-b]benzofuro[4,3-fg][1,4]oxazonine]
< 25 | < 25 | Cn1nccc1-c1cc2c(n3cnnc13)NCc1c(F)ccc3c1C(CO3)CO2 (stereo not shown) [Example 17]
100 to 500 |  | COc1ncc(-c2cc3c(n4cnnc24)NCc2c(F)ccc4c2[C@H](CO4)CO3)cn1 [Example 30]
50 to 100 |  | CS(=O)(=O)c1ccc(-c2cc3c(n4cnnc24)NCc2c(F)ccc4c2C(CO4)CO3)cc1 (stereo not shown) [Example 36]
50 to 100 |  | Cc1cc(C#N)ccc1-c1cc2c(n3cnnc13)NCc1c(F)ccc3c1[C@H](CO3)CO2 [Example 49]
< 25 | 50 to 100 | Cn1nc(C(F)(F)F)cc1-c1cc2c(n3cnnc13)NCc1c(F)ccc3c1[C@H](CO3)CO2 [Example 115]
